Results on one compound are retold here after patent US7094754B2, “Anti-aging and wound healing compounds” (Kimberly-Clark Worldwide, Inc., priority 2001, dated 2006).

One test has as its target T1, MMP-9 (Homo sapiens, UniProt P14780).
T1 construct: Active MMP-9 enzyme was purchased from Calbiochem; purchased Calbiochem
As to the kind of experiment: Isothermal titration calorimetry with MMP-9. The format is binding. The method, then:
Isothermal titration calorimetry (ITC) was performed with a VP-ITC instrument from MicroCal, hIc. Titrations were carried out by injecting 5 μL of an inhibitor peptide solution (at concentration ranges from 0.5 mM to 2.0 mM) into the 1.4 mL stirred reaction cell. […] Titrations were conducted between 20° C. and 40° C. Typical experimental conditions for the titrations were a 10 second injection period followed by a 240 second delay between injections for a total of 40 injections. Blank titrations of inhibitor peptide into buffer were performed in order to correct for heats of dilution and mixing.
The independent set of multiple binding sites is the most common model for binding experiment evaluations. The analytical solution for the total heat is determined by (Freire et al., 1990):
[formula] where Q is the total heat, V is the cell volume, ΔH is the enthalpy, M is the macromolecule concentration (the binding partner in the cell), n is the binding stoichiometry, L is the ligand concentration (the binding partner in the syringe), and K is the association constant. Data were fit to this model using Origin version 5 (MicroCal, Inc.). Surface Plasmon Resonance
The peptide was dissolved in 20 mM cacodylate (pH 6.8), 20 mM NaCl at a final concentration of 1 mM. MMP-9 was dialyzed into the same buffer at a final concentration of 20 μM. […]

Test [1] has as its system neutrophils isolated from human blood. As to the kind of experiment: Neutrophil migration assay (transwell). Format: cell-based. The following applies: HSA 0.4%. The method, then:
Peptides were synthesized and purified by the Microchemical Facility at Emory University or by SigmaGenesis. All peptides were analyzed by mass spectrometry after HPLC to assess purity. Approximately 0.5–2.0 milligrams of peptide were used to make fresh stock solutions (5 mg/mL in HBSS/HSA) for each migration assay. The peptide stock solutions were used to make more dilute solutions (1 mg/mL, 100 μg/mL, 10 μg/mL, 1 μg/mL, 100 ng/mL, and 10 ng/mL) in HBSS/HSA for the assays.
Neutrophils were isolated from human blood (collected in Vacutainerm tubes containing EDTA) by layering the blood/EDTA mixture (about 20 mL) on top of two layers of Histopaque™ 1119 (bottom layer, 18 mL) and 1077 (top layer, 7 mL) in 50 mL Falcon tubes. The tubes were centrifuged at 1800 rpm for 30 minutes (no brake). Four layers appeared in the tubes after the spin (from top to bottom layers): plasma, 1077, 1119, and red blood cells. The buffy coat between the plasma and 1077 layers contained lymphocytes, monocytes, and some platelets. The plasma layer, the buffy coat, and most of the 1077 layer was removed and discarded. The 1119 layer that contained the neutrophils was removed and was placed into a clean 50 mL tube. Dulbecco's Phosphate Buffered Saline (DPBS) was added to bring the volume to 50 mL. The cells were centrifuged for 15 minutes at 2100 rpm. The cells were resuspended in 10 mL of DPBS, transferred to 15 mL tubes, and centrifuged again for 10 minutes at 2000 rpm. This process was repeated to wash the cells a second time. After the supernatant was removed, the red blood cells were lysed by adding 6 mL of cold sterile water to each 15 mL of supernatant. Cells were mixed in the water for only 30 seconds. Six mL of cold 2% sterile saline was then added. Cells were centrifuged again for 10 minutes at 2000 rpm. The red supernatant (containing hemoglobin from red blood cells) was removed. This process of red blood cell lysis was repeated two more times to remove all of the red blood cells. After most of the red blood cells were removed, neutrophils were resuspended in 10 mL of HBSS/HSA for counting with trypan blue.
A neutrophil migration assay was performed in duplicate using a 24-well transwell plate (3 μm pore size for membrane). Transwell membranes were pre-moistened with 20–40 μL of HBSS/HSA (0.04–0.4%). Chemotactic solutions (500 μL) were added to the bottom of each well. […] Transwells were then placed into the chemotactic solutions. The plate was placed into the incubator (37° C., 5% CO2) for one hour. Cells that migrated through the membrane were counted using trypan blue.
In the neutrophil migration experiments, neutrophils that were isolated were approximately 95% viable. Neutrophils were resuspended in HBSS/0.4%HSA for this experiment. IL-8 (10 nM in the HBSS/0.4%HSA buffer) was used as a positive control for neutrophil migration.

Each structure is given as a SMILES string.

T1 sequence (P14780 107-707 limits assumed): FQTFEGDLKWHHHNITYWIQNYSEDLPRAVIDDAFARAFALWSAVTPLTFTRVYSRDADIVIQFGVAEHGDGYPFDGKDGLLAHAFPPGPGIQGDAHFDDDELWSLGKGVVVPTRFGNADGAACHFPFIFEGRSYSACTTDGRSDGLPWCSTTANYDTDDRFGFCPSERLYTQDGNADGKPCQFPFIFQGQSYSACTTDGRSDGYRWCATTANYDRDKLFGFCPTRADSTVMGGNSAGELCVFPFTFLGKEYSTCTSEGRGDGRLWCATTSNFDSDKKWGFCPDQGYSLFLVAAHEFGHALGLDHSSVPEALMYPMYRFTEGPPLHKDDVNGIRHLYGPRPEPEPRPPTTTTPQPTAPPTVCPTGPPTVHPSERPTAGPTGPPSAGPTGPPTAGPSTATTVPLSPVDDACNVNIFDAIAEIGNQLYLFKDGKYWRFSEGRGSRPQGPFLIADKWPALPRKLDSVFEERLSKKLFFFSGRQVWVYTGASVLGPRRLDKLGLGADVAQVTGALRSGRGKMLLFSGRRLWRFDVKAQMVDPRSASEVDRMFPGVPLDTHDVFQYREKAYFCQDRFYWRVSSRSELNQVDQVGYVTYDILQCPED

Turning to `CC(C)[C@H](NC(=O)[C@H](CC(=O)O)NC(=O)[C@@H]1CCCN1C(=O)[C@H](CC(N)=O)NC(=O)CNC(=O)[C@H](CS)NC(=O)[C@H](CCCNC(=N)N)NC(=O)[C@@H]1CCCN1)C(=O)N[C@@H](C)C(=O)N[C@@H](CC(N)=O)C(=O)N[C@@H](Cc1ccc(O)cc1)C(=O)N[C@@H](CC(N)=O)C(=O)N[C@@H](Cc1ccccc1)C(=O)N[C@@H](Cc1ccccc1)C(=O)N1CCC[C@H]1C(=O)N[C@@H](CCCNC(=N)N)C(=O)N[C@@H](CCCCN)C(=O)N1CCC[C@H]1C(=O)N[C@@H](CCCCN)C(=O)O` [19-mer], at MMP-9, the dissociation constant Kd (as a rule, the constant that tells how readily two partners part at equilibrium) is 606 nM. Moreover, the Stoichiometry on MMP-9 (ITC, 1 mM peptide into 20 μM MMP-9, 20 mM cacodylate (pH 6.8), 20 mM NaCl) is listed as 0.975 ± 0.02. Also, the “Percent Neutrophil Migration exp.1” value stood at 32% in test [1] (1 μg/mL); 22% in test [1] (10 μg/mL); 29% in test [1] (100 μg/mL); 23% in test [1] (1 mg/mL, one hour).
